Measurements taken from publication PMC3961306, “Comparison of the Cancer Gene Targeting and Biochemical Selectivities of All Targeted Kinase Inhibitors Approved for Clinical Use” (PLoS ONE, 2014).
Like-named read-outs stand apart in the source and are kept apart here.

Experiments:
Experiment in all cases: Kinase profiling in a biochemical assay panel (mobility shift assays and ELISA), %-inhibition at 1 μM; selectivity entropy
[1] = molecular target: panel of more than 300 wild-type and mutant kinases (313 kinase panel) (Homo sapiens, UniProt P36894)
[2] = molecular target: panel of more than 300 wild-type and mutant kinases (313 kinase panel) (Homo sapiens, UniProt P06239); conditions: kinase LCK; compound at 1 μM
panel of more than 300 wild-type and mutant kinases (313 kinase panel) (Homo sapiens, UniProt P06239), sequence (P06239 whole entry, change not shown): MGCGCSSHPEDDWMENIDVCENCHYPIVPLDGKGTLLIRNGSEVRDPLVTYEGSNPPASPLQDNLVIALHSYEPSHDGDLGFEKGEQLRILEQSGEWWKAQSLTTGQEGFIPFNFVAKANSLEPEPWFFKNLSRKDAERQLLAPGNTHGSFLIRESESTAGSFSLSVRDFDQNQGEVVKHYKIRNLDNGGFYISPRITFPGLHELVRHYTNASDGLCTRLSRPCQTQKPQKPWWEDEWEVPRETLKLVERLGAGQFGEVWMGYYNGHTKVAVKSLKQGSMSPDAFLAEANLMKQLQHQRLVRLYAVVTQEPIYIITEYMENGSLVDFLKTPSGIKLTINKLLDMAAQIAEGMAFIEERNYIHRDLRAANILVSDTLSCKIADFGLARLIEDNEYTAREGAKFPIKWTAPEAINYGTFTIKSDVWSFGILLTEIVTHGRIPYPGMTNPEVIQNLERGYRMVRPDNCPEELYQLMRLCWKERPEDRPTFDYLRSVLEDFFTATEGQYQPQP

[3] = molecular target: panel of more than 300 wild-type and mutant kinases (313 kinase panel) (Homo sapiens, UniProt P22607)
panel of more than 300 wild-type and mutant kinases (313 kinase panel) (Homo sapiens, UniProt P22607), sequence (P22607 23-806, change not shown): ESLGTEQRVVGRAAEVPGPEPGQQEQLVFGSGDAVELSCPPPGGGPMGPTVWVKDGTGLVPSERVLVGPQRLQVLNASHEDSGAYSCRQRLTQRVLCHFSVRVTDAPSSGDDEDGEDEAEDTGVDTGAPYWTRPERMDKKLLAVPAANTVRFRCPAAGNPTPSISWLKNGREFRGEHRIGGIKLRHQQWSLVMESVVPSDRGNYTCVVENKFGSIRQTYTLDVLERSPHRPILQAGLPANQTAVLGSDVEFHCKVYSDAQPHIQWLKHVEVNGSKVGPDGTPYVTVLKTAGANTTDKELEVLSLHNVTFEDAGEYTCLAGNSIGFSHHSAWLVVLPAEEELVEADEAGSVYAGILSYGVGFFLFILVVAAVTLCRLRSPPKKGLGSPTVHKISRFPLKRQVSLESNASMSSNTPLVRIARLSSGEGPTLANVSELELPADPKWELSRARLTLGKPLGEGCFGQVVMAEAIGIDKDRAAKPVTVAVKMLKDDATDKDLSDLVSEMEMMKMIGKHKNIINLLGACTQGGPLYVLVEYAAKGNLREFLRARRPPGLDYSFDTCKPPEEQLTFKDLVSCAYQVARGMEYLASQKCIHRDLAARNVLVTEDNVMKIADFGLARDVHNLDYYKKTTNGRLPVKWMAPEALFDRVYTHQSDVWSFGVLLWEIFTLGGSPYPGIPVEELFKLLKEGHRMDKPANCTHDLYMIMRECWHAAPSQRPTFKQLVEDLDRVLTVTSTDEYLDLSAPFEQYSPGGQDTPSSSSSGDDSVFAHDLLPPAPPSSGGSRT

[4] = molecular target: panel of more than 300 wild-type and mutant kinases (313 kinase panel) (Homo sapiens, UniProt Q9BUB5)
panel of more than 300 wild-type and mutant kinases (313 kinase panel) (Homo sapiens, UniProt Q9BUB5), sequence (Q9BUB5 whole entry, change not shown): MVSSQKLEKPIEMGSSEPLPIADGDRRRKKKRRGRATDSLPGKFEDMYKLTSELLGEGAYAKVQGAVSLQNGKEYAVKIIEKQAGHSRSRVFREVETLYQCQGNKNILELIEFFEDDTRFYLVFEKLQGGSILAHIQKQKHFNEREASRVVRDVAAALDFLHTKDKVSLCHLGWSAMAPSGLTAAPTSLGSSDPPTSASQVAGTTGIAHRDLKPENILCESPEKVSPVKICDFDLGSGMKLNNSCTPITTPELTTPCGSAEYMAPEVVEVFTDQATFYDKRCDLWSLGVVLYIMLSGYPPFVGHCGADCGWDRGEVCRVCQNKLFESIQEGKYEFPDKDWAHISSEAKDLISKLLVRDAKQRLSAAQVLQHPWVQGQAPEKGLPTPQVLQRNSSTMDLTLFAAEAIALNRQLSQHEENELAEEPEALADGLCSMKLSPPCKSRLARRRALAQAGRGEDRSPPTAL

[5] = molecular target: T1, panel of more than 300 wild-type and mutant kinases (313 kinase panel) (Homo sapiens, UniProt Q9UQB9)
T1 sequence (Q9UQB9 1-309): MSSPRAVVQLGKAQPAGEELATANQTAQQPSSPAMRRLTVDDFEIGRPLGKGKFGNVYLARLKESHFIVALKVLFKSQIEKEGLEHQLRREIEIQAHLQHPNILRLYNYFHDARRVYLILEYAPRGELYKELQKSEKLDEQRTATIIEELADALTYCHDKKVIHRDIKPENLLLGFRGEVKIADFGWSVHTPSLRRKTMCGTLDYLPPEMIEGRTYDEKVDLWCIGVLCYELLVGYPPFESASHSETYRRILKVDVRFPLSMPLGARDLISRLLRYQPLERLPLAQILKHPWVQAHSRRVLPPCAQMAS

[6] = molecular target: panel of more than 300 wild-type and mutant kinases (313 kinase panel) (Homo sapiens, UniProt Q02779)
panel of more than 300 wild-type and mutant kinases (313 kinase panel) (Homo sapiens, UniProt Q02779), sequence (Q02779 whole entry, change not shown): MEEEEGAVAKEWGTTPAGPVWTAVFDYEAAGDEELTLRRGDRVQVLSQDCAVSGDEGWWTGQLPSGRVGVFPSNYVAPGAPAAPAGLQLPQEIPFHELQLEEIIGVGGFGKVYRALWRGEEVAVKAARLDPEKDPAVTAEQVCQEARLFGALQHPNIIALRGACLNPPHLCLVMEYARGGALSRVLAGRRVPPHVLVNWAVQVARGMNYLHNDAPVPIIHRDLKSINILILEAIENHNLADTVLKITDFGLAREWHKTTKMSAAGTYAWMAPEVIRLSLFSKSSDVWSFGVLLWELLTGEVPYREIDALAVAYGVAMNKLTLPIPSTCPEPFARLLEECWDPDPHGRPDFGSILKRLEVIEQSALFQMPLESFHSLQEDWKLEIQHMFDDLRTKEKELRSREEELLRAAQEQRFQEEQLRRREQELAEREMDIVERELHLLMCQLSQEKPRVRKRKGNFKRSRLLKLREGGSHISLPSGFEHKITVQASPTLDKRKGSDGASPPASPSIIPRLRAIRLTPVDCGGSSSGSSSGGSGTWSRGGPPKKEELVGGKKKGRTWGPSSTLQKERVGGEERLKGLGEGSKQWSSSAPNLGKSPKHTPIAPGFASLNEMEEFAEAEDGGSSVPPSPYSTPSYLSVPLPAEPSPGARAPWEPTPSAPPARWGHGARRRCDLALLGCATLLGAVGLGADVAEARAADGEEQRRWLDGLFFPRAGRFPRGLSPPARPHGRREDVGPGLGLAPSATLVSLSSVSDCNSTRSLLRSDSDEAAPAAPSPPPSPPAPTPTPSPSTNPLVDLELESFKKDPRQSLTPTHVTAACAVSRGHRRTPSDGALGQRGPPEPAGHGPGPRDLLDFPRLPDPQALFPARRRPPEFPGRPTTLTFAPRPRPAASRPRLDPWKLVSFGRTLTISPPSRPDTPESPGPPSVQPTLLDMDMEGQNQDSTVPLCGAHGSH

[7] = molecular target: panel of more than 300 wild-type and mutant kinases (313 kinase panel) (Homo sapiens, UniProt Q96GD4)
panel of more than 300 wild-type and mutant kinases (313 kinase panel) (Homo sapiens, UniProt Q96GD4), sequence (Q96GD4 whole entry, change not shown): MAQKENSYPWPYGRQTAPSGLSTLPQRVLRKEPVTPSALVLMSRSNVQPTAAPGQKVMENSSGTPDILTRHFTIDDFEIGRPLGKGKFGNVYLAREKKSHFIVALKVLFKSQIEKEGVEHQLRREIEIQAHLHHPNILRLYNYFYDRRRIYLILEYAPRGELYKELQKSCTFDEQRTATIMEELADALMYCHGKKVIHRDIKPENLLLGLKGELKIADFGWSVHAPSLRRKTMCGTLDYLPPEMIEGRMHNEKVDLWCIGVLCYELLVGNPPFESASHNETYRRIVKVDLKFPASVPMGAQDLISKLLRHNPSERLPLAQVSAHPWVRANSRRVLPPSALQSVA

[8] = molecular target: T2, panel of more than 300 wild-type and mutant kinases (313 kinase panel) (Homo sapiens, UniProt Q92630)
T2 sequence (Q92630 1-601): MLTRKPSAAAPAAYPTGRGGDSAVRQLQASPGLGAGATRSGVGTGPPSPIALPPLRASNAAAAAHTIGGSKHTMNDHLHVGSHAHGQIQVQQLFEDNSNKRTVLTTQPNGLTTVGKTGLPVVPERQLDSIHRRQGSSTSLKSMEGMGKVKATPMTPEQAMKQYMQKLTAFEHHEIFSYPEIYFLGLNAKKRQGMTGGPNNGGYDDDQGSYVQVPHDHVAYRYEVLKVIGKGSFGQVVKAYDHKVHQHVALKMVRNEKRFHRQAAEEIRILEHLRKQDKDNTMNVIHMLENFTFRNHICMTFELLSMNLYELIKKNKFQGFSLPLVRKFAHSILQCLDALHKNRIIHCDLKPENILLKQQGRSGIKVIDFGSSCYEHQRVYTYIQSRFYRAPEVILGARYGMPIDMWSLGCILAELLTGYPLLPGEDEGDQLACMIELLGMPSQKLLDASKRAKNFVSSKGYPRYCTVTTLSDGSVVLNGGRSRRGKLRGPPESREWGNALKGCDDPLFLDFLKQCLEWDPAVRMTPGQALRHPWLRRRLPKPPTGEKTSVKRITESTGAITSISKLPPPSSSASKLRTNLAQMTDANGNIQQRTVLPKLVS

[9] = molecular target: panel of more than 300 wild-type and mutant kinases (313 kinase panel) (Homo sapiens, UniProt Q9H2G2)
[10] = molecular target: T3, panel of more than 300 wild-type and mutant kinases (313 kinase panel) (Homo sapiens, UniProt Q9UHD2)
T3 sequence (Q9UHD2 1-729): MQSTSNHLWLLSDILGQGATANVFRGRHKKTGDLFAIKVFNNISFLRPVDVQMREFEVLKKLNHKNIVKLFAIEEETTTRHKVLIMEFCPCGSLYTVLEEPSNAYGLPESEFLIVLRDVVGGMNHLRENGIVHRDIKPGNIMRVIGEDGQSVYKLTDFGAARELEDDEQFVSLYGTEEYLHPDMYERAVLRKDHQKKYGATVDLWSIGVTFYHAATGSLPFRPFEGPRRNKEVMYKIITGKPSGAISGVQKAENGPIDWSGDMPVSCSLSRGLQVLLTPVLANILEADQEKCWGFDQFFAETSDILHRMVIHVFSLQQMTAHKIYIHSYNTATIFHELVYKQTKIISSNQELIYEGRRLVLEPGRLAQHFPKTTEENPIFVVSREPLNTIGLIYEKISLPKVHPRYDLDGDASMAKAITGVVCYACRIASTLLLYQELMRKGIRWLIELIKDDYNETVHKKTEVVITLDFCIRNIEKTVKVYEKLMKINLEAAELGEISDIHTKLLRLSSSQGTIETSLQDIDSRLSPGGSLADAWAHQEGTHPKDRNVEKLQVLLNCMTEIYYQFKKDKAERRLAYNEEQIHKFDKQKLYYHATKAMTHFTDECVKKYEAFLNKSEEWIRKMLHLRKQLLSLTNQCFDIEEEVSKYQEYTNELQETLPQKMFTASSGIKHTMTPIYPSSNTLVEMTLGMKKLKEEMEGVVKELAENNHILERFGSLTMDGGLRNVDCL

[11] = molecular target: panel of more than 300 wild-type and mutant kinases (313 kinase panel) (Homo sapiens, UniProt Q13177)

Compound	%-inhibition, BMPR1A ([1]; kinase BMPR1A, 1 μM compound) [%]	%-inhibition of LCK [2] [%]	%-inhibition of FGFR3 ([3]; kinase FGFR3, compound at 1 μM) [%]	%-inhibition of MNK1 ([4]; kinase MNK1, 1 μM) [%]	%-inhibition, AurC ([5]; kinase AurC, 1 μM compound) [%]	%-inhibition of MLK2 ([6]; kinase MLK2, 1 μM) [%]	%-inhibition, AurB ([7]; kinase AurB, 1 μM compound) [%]	%-inhibition of DYRK2 ([8]; kinase DYRK2, compound at 1 μM) [%]	%-inhibition of SLK ([9]; kinase SLK, 1 μM) [%]	%-inhibition of TBK1 ([10]; kinase TBK1, 1 μM) [%]	%-inhibition of PAK2 ([11]; kinase PAK2, 1 μM) [%]	other results
Cc1ccc(C(=O)Nc2ccc(CN3CCN(C)CC3)c(C(F)(F)F)c2)cc1C#Cc1cnc2cccnn12 [ponatinib]	6.48	103	101	30	19	39	46					
CC(C)(C)c1nc(-c2cccc(NS(=O)(=O)c3c(F)cccc3F)c2F)c(-c2ccnc(N)n2)s1 [dabrafenib]	17	83	4.27	20	23	47	39	6	12	-1.15		
COc1cc(Nc2c(C#N)cnc3cc(OCCCN4CCN(C)CC4)c(OC)cc23)c(Cl)cc1Cl [bosutinib]	1.74			-4.37		58				32		%-inhibition, AurC ([5]; 1 µM): -4%
Cc1nc(Nc2ncc(C(=O)Nc3c(C)cccc3Cl)s2)cc(N2CCN(CCO)CC2)n1 [dasatinib]								12			0.254	
CO[C@H]1C[C@@H]2CC[C@@H](C)[C@@](O)(O2)C(=O)C(=O)N2CCCC[C@H]2C(=O)O[C@H]([C@H](C)C[C@@H]2CC[C@@H](OC(=O)C(C)(CO)CO)[C@H](OC)C2)CC(=O)[C@H](C)/C=C(\C)[C@@H](O)[C@@H](OC)C(=O)[C@H](C)C[C@H](C)/C=C/C=C/C=C/1C [temsirolimus]	-9	-2.22	-5	-19	0.194	9	-4	-3.63	-4	-2.23	-1.81	
C#Cc1cccc(Nc2ncnc3cc(OCCOC)c(OCCOC)cc23)c1 [erlotinib]												%-inhibition of DYRK2 ([8]; 1 µM): 45%; %-inhibition of SLK ([9]; 1 µM): 89%; %-inhibition of TBK1 ([10]; 1 µM): 26%; %-inhibition, BMPR1A [1]: 12%; %-inhibition of FGFR3 ([3]; 1 µM): 63%; %-inhibition of MNK1 ([4]; 1 µM): 74%; %-inhibition, AurC ([5]; 1 µM): 24%; %-inhibition of MLK2 ([6]; 1 µM): -1.75%; %-inhibition of PAK2 ([11]; 1 µM): 5%; %-inhibition, AurB ([7]; 1 µM): 25%
CCCS(=O)(=O)Nc1ccc(F)c(C(=O)c2c[nH]c3ncc(-c4ccc(Cl)cc4)cc23)c1F [vemurafenib]	9	81	15	23	13	5	6	1	43	-0.81	13	
N#CC[C@H](C1CCCC1)n1cc(-c2ncnc3[nH]ccc23)cn1 [ruxolitinib]	5.7	21	15	8.57		22	24	-10	7	21	3.37	
CC(=O)Nc1cccc(-n2c(=O)n(C3CC3)c(=O)c3c(Nc4ccc(I)cc4F)n(C)c(=O)c(C)c32)c1 [trametinib]	2.14	-7	-5.68	-3	1	5	-4	-0.0865	-2.6	-4.47	-9	
COc1cc2c(Nc3ccc(Br)cc3F)ncnc2cc1OCC1CCN(C)CC1 [vandetanib]	46			91		12	23	-9	90	0.911	-2	
CCN(CC)CCNC(=O)c1c(C)[nH]c(/C=C2\C(=O)Nc3ccc(F)cc32)c1C [sunitinib]			97		82					56		
C[C@@H](Oc1cc(-c2cnn(C3CCNCC3)c2)cnc1N)c1c(Cl)ccc(F)c1Cl [crizotinib]	41		43	0	87	4.7		10		1.42	5	
Cc1ccc(Nc2nccc(N(C)c3ccc4c(C)n(C)nc4c3)n2)cc1S(N)(=O)=O [pazopanib]	-1.7	73		-2	58	18	45	-1	28	-2.68	3.51	
